Measured values published in patent publication US6919441B2, “Polyamide-oligonucleotide derivatives, their preparation and use” (Aventis Pharma Deutschland GmbH, priority 1995, dated 2005).

How the values were obtained:
N-ras RNA = assay: RNase H mediated cleavage of N-ras RNA, cell-free system; format: biochemical; conditions: RNase H from E. coli
Protocol: The ability to cleave N-ras RNA specifically by PNA-DNA chimera directed against N-ras which can induce RNase H was tested in a cell-free system. First, radioactively labelled N-ras RNA was prepared by in vitro transcription.
The plasmid pMS5-NRAS, which is a derivative of pBluescript II KS (±/−) containing the mutant N-ras sequence (codon 13 GGT→CGT) cloned into XbaI/EcoRI sites, was linearized with EcoR1. After phenol extraction and ethanol precipitation the linear DNA was used as template for in vitro transcription. For transcription, the DNA (5 μg) was incubated in a 100 μl mixture containing 10 mM DTT, 40 mM Tris-HCl pH 7.5, 50 mM NaCl, 8 mM MgCl2, 2 mM spermidine, 500 μM of each rNTP, 80 u RNase-inhibitor, 40 μCi [α-^32P]-(ATP) and 250 u T7 RNA polymerase. After incubation for 1 h at 37° C., the DNA was digested by addition of 25 u DNaseI and further incubation for 30 min at 37° C. After extraction with phenol and chloroform, the aqueous phase was transferred into a Centricon tube and centrifuged at 3410 rpm for 30 min. The RNA was analyzed by PAGE (6% PAA, 8 M urea). For the RNase H cleavage the radioactively labelled N-ras RNA (approximately 0.05 nmol; aqueous solution from above) was hybridized with the PNA-DNA chimera speific for N-ras mRNA (6.5 nmol) by heating to 80° C. and cooling to room temperature. […] The cleavage reactions were analyzed by PAGE (6% PAA, 8 M urea) gel.

TNF-α = assay: Inhibition of TNF-α expression in THP-1 cells (ELISA); format: cell-based, human; conditions: 0.1-0,5 μM, Cellfectin, PMA/IFNγ stimulation
Protocol: Cell Culture. The human monocytic cell line, THP-1 was grown in RPMI 1640 supplemented with L-glutamine (GIBCO BRL, Life Technologies, Inc.), 10% heat inactivated fetal bovine serum (GIBCO BRL) and penicillin (100 U/ml)/streptomycin (100 μg/ml). The NIH3T3 permanently producing human TNFα was maintained in 10% DMEM.
Enzyme Linked Immunosorbent Assays (ELISA) for TNFα. The TNFα level was quantified using ELISA kit (Cat. #DTA50) obtained from R&D Systems (Minneapolis, Minn.).
Assay Methods. THP-1 cells (3×10^6) were seeded in 48-well plates in 0.2 ml of Opti-MEM (GIBCO) medium. In a 96-well plate, varying concentrations of PNA-DNA chimera (20 μl) were each added to 20 μl of Cellfectin in Opti-MEM (2.4 μl of 1 mg/ml Cellfectin added to 17.6 μl Opti-MEM) and incubated for 15 min at room temperature. The mixture was then added to the cells dropwise. The final concentration of the Cellfectin was 10 μg/ml in 0.24 ml of Opti-MEM. After 4 hours at 37° C., 0.48 ml of 15% RPMI medium was added to each well (This dilution step was added to inactivate the Cellfectin). The final concentration of cells was ˜1×10^6 calls/ml in 10% RPMI. The cells were then stimulated with a combination of 100 ng/ml of PMA and 300 U/ml of IFNγ. […] The supernatants were analyzed for TNFα.

5′-CCAACA-(Oeg(c))-cgacctgct-hex [Example 57]
induction of RNase H mediated cleavage of N-ras RNA (N-ras RNA): able to induce RNase H mediated cleavage

5′-USCSASGGSUG-(Oeg(t))-cctttgcag-hex [Example 56]
inhibition of TNF-α expression relative to untreated controls (TNF-α): 25-35%
